Among the data in US4649160A, “Substituted phenoxy-aminopropanols” (Hoffmann-La Roche Inc., priority 1980, dated 1987) are ED50 values, retold here.

Structures can show the parent of a compound that is named as a salt. Where two headings read alike, the source gives them in different places.

The target of one experiment is T1, β1-adrenoceptors (Rattus norvegicus, UniProt P18090).
T1 construct: measured in rats by determining the dosage in μg/kg i.v. of substance being tested; from tissue; host or cells: living rat (in vivo, i.v. dosing); heart rate response to isoprenaline
As to the kind of experiment: 50% reduction in isoprenaline-induced tachycardia in rats (β-blocking activity, heart rate). In kind it is in vivo. The conditions noted are these: iv, read-out: ED50 (HR).

The target of a further experiment is T2, β2-adrenoceptors (Rattus norvegicus, UniProt P10608).
T2 construct: measured in rats by determining the dosage in μg/kg i.v. of substance being tested; from tissue; host or cells: living rat (in vivo, i.v. dosing); vascular depressor response to isoprenaline
As to the kind of experiment: 50% reduction in isoprenaline-induced depressor responses in rats (β-blocking activity, blood pressure). In kind it is in vivo. The conditions noted are these: iv, read-out: ED50 (BP).

[1] abbreviates: rats, i.v., dosage for 50% reduction in isoprenaline-induced tachycardia.
Setting [2] is: rats, i.v., dosage for 50% reduction in isoprenaline-induced depressor responses.

T2 sequence (P10608 whole entry): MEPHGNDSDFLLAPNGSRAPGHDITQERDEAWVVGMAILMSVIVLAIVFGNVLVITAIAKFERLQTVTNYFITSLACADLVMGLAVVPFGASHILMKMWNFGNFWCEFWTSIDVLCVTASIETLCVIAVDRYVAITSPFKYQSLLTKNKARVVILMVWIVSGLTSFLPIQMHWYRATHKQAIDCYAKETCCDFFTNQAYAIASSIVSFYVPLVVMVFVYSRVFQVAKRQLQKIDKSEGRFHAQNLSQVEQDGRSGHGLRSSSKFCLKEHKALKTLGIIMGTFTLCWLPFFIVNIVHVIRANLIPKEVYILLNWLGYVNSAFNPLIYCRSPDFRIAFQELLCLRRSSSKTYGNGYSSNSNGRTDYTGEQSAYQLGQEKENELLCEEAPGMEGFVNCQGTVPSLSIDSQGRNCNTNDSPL
T1 sequence (P18090 whole entry): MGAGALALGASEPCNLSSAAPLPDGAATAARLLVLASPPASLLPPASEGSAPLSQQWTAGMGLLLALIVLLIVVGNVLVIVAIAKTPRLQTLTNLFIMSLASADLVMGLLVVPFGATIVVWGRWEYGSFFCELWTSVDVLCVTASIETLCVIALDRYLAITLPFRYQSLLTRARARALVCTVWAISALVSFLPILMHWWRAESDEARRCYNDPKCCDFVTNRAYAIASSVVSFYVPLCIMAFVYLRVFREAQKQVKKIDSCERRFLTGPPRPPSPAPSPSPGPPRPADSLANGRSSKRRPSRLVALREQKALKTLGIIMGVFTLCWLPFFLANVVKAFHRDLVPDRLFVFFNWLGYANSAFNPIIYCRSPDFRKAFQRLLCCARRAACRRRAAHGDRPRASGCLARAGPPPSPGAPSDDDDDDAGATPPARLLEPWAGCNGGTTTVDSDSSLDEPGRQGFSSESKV

With `CC(C)NCC(O)COc1ccc(OCCOCCc2ccccc2)cc1Cl` (centres unmarked) [1-[2-chloro-4-[2-(phenethyloxy)ethoxy]phenoxy]-3-isopropylamino-2-propanolhydrochloride], the ED50 on β1-adrenoceptors (setting [1]) stood at 0.025 mg/kg; at β2-adrenoceptors (setting [2]) it was 0.834 mg/kg.

On to `CC(C)NCC(O)COc1ccc(OCCOCCc2ccc(F)cc2)cc1` (centres unmarked) [1-[4-[2-(4-fluorophenethyloxy)-ethoxy]phenoxy]-3-isopropylamino-2-propanolhydrochloride], for which the values for the ED50 at β1-adrenoceptors (setting [1]) and at β2-adrenoceptors (setting [2]) were 0.003 mg/kg and more than 2 mg/kg, respectively.

Regarding `CC(C)NCC(O)COc1ccc(OCCOCCc2ccccc2)cc1.Cl` (centres unmarked) [1-isopropylamino-3-[4-(2-phenethyloxyethoxy)phenoxy]-2-propanol hydrochloride], the median effective dose (ED50) on β1-adrenoceptors was 0.015 mg/kg; at β2-adrenoceptors, more than 2 mg/kg.

On to `CC(C)(C)NCC(O)COc1ccc(OCCOCCc2ccccc2)cc1.Cl` (centres unmarked) [1-tert.butylamino-3-[4-(2-phenethyloxyethoxy)phenoxy]-2-propanol hydrochloride], for which the results for the 50% effective dose (ED50) on β1-adrenoceptors and on β2-adrenoceptors were 0.018 mg/kg and 0.979 mg/kg, respectively.
